From ChEMBL document CHEMBL1159026, “Brominated beta-carbolines from the marine tunicate Eudistoma album” (1992)
In brackets after ≈: the same amount, converted by molar mass.

Columns and labels:
Format in all cases: functional
KB [1] = experiment: Cytotoxicity against human KB cells at 5 ug/ml
KB [2] = experiment: Cytotoxicity against human KB cells; conditions: read-out: ED50 (the source's name)
KB [3] = experiment: Cytotoxicity against human KB cells at 0.005 to 10 ug/ml
KB [4] = experiment: Cytotoxicity against human KB cells at 10 ug/ml
KB [5] = experiment: Cytotoxicity against human KB cells at 1 ug/ml

Row | SMILES | Activity (KB [1]) [%] | EC50 (KB [2]) [µg/mL] | EC50 (KB [3]; Homo sapiens, KB, read-out: ED50 (the source's name)) [µg/mL] | Activity (KB [4]) [%] | Activity (KB [5]) [%] | Activity (KB [3]) [%]
1 | CC(C)CC(N)c1nccc2c1[nH]c1cc(Br)ccc12 (centres undefined) [EUDISTALBIN A] | 92 | 3.2 (≈ 9.63 µM) | 3.2 (≈ 9.63 µM) | 100 | 0 | 
2 | CC(C)CC(=O)c1nccc2c1[nH]c1cc(Br)ccc12 [EUDISTALBIN B] |  |  |  | 0 | 0 | 
3 | N[C@@H]1CSCON2CCc3c([nH]c4ccc(O)c(Br)c34)[C@H]12 [EUDISTOMIN E] |  | < 0.005 |  |  |  | 100
